Experimental data as given in patent US20250205317A1, “METHODS AND COMPOSITIONS FOR THE TREATMENT OF STROKE” (University of Maryland, Baltimore, priority 2022, published 2025).
Entries after “also recorded” stand apart in the source; their conditions may differ.

Assays:
[1] = test system: C57BL/6 mice, MCAo and reperfusion; test: 2-hour MCAo followed by 24 hours reperfusion, infarct volume and reperfusion edema (Example 2); type: in vivo, mouse; settings: 0.07 mg/kg IV at reperfusion
Description: A,B: Edema, measured as percent hemispheric swelling, vs. TTC infarct volume following 2 hour MCAo and 24 hour reperfusion; data are shown for C57BL/6 mice treated upon reperfusion with vehicle (empty circles) vs. the SGLT2 inhibitor, canagliflozin (filled squares; 0.07 mg/kg IV). Note the significant downward shift in the regression line, signifying reduced coupling between reperfusion edema and infarct volume.
The known variability in the brain damage caused by ischemia in C57BL/6 mice was leveraged (Knauss, et al., Frontiers in Neuroscience 2020) to quantify the relationship between reperfusion edema and infarct volume, under both control conditions and with SGLT2 inhibition. Mice underwent 2-hour MCAo followed by 24 hours reperfusion. At 2 hours, at the time of reperfusion, mice were randomly assigned to receive either vehicle control or canagliflozin (0.07 mg/kg IV). At 24 hours, the brains were evaluated for infarct volume using 2,3,5-triphenyltetrazolium chloride (TTC) (Khan, et al., Evaluation of an optimal temperature for brain storage in delayed 2, 3,5-triphenyltetrazolium chloride staining, J. Neurosci. Methods 2000, 98:43-47), and the hemisphere volume was quantified as a measure of reperfusion edema. McBride, et al., Correcting for Brain Swelling's Effects on Infarct Volume Calculation After Middle Cerebral Artery Occlusion in Rats, Transl. Stroke Res. 2015, 6:323-338. […]

[2] = Serum glucose before and after canagliflozin administration (Example 3); type: in vivo, mouse; settings: 0.07 mg/kg IV; compared to baseline / vehicle; 5 mice/group
Description: Drugs of the gliflozin class are used in patients with diabetes mellitus to lower serum glucose. To control for the possibility that the effect of canagliflozin was mediated by a reduction in serum glucose, we measured serum glucose at various times before and after canagliflozin (0.07 mg/kg IV) administration.

C57BL6 mice, MCAo/R = test: MCAo/R (2/24 hours): infarct volume, hemispheric swelling, brain water, Garcia score (Example 4); type: in vivo, mouse
[3] = Blood glucose at reperfusion and at euthanasia by glucometer (Example 4); type: in vivo, mouse; settings: non-diabetic mice; 200 μg/kg IV; 5-7 mice/group
[4] = test system: astrocytes (SGLT2 activated by glucose); test: Astrocyte cell volume in ex vivo MCAo/R brain slices after glycemic challenge; type: cell-based, mouse; settings: ipsilateral brain slices, MCAo/R 2/6 hours; step change 2 to 10 mM glucose; 5 μM
[5] = test system: rat model with type 1 diabetes mellitus and bilateral ischemia; settings: 30-minute bilateral ischemia; cited from earlier work
[6] = test system: patients with or without T2DM; settings: long-term use, regardless of T2DM; cited from earlier work
[7] = 200 μg/kg IV at reperfusion, mean ± S.E.

With `Cc1ccc([C@@H]2O[C@H](CO)[C@@H](O)[C@H](O)[C@H]2O)cc1Cc1ccc(-c2ccc(F)cc2)s1` [canagliflozin] the “infarct volume (TTC)” value [1] was 63.1±8.0 % of hemisphere, the “reperfusion edema (percent hemispheric swelling) relative to infarct volume” value ([1]; shift in Deming regression p<0.0001) was “reduced at all infarct volumes” and the serum glucose [2] was “remained euglycemic; also recorded: not affected”. For the same molecule, the “neurological function, Garcia score (median)” value (C57BL6 mice, MCAo/R; 200 μg/kg IV) was 8, the hemispheric swelling (C57BL6 mice, MCAo/R; [7]) was 15.7±1.0% and the infarct volume (C57BL6 mice, MCAo/R; [7]) was 87.7±6.7 mm^3. For the same molecule, the “maximum hemispheric swelling (YM) from exponential fit” value (C57BL6 mice, MCAo/R; 200 μg/kg IV, fit to Eq. 1) was 17.9%, the ipsilateral brain water (C57BL6 mice, MCAo/R; 200 μg/kg IV, wet weight/dry weight method) was 82.3±0.4 and the “blood glucose at 24 hours” value [3] was 146 ± 10 mg/dL. The “blood glucose at reperfusion” value [3] was 175 ± 10 mg/dL and the “glucose-induced changes in astrocyte volume” value [4] was “completely blocked”.

For `OC[C@H]1O[C@@H](c2ccc(Cl)c(Cc3ccc(O[C@H]4CCOC4)cc3)c2)[C@H](O)[C@@H](O)[C@@H]1O` [empagliflozin], the blood glucose [5] is listed as “reduced blood glucose”, the infarct volume [5] is listed as “reduced blood glucose as well as infarct volume” and the “progression of kidney disease” value [6] is listed as “slows the progression of kidney disease”. For the same molecule, the “risk of death from cardiovascular disease” value [6] was “reduces the risk of death from cardiovascular disease”.
